Laboratory results: the supplement of paper PMC10307832

Legend:
Assay in all cases: relative viability (nuclei count vs DMSO), 5 days (fraction); higher = more cells survive
[1] = system: 201T
Outline: (§1)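 Medians of duplicate plates are given as relative viability. That measure is the nuclei count in treated wells divided by the count in vehicle wells. Counts were taken on 4× images of lung cancer cell lines in 1536-well plates, 5 days after pin-tool dosing the day after seeding with one drug alone or a fixed anchor-drug dose plus five library-drug doses (not always all listed) in √10 steps.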

[2] = system: BEN
Outline: as §1

[3] = system: COR-L 105
Outline: as §1

[4] = system: EKVX
Outline: as §1

[5] = system: EPLC-272H
Outline: as §1

[6] = system: H3255
Outline: as §1

[7] = system: HCC-44
Outline: as §1

[8] = system: HCC-827
Outline: as §1

[9] = system: LCLC-97TM1
Outline: as §1

[10] = system: LOU-NH91
Outline: as §1

[11] = system: LU99A
Outline: as §1

[12] = system: NCI-H1437
Outline: as §1

[13] = system: NCI-H1666
Outline: as §1

[14] = system: NCI-H1975
Outline: as §1

[15] = system: NCI-H2085
Outline: as §1

[16] = system: NCI-H2087
Outline: as §1

[17] = system: NCI-H2170
Outline: as §1

[18] = system: NCI-H647
Outline: as §1

[19] = system: NCI-H650
Outline: as §1

[20] = system: PC-3 [JPC-3]
Outline: as §1

[21] = system: SW 1573
Outline: as §1

COc1cc2nccc(Oc3ccc(NC(=O)Nc4cc(C)on4)c(Cl)c3)c2cc1OC [Tivozanib] + C[C@@H](Oc1cc(-c2cnn(C3CCNCC3)c2)cnc1N)c1c(Cl)ccc(F)c1Cl [Crizotinib] (partner 1 µM)
relative viability ([1]; first compound 0.005 µM): 0.981 | relative viability ([1]; first compound 0.01581 µM): 1.04 | relative viability ([1]; first compound 0.05 µM): 1.06 | relative viability ([1]; first compound 0.1581 µM): 1 | relative viability ([1]; first compound 0.5 µM): 1.04 | relative viability ([2]; first compound 0.005 µM): 0.966 | relative viability ([2]; first compound 0.01581 µM): 0.865 | relative viability ([2]; first compound 0.05 µM): 0.647 | relative viability ([2]; first compound 0.5 µM): 1.01 | relative viability ([3]; first compound 0.01581 µM): 0.794 | relative viability ([3]; first compound 0.05 µM): 0.797 | relative viability ([3]; first compound 0.1581 µM): 0.775 | relative viability ([3]; first compound 0.5 µM): 0.701 | relative viability ([4]; first compound 0.005 µM): 0.995 | relative viability ([4]; first compound 0.01581 µM): 1.02 | relative viability ([4]; first compound 0.05 µM): 0.819 | relative viability ([4]; first compound 0.1581 µM): 1.06 | relative viability ([4]; first compound 0.5 µM): 1.22 | relative viability ([5]; first compound 0.005 µM): 0.945 | relative viability ([5]; first compound 0.01581 µM): 0.829 | relative viability ([5]; first compound 0.05 µM): 0.937 | relative viability ([5]; first compound 0.1581 µM): 0.718 | relative viability ([5]; first compound 0.5 µM): 0.715 | relative viability ([6]; first compound 0.005 µM): 0.799 | relative viability ([6]; first compound 0.01581 µM): 0.906 | relative viability ([6]; first compound 0.05 µM): 0.911 | relative viability ([6]; first compound 0.1581 µM): 0.777 | relative viability ([6]; first compound 0.5 µM): 0.8 | relative viability ([7]; first compound 0.005 µM): 0.743 | relative viability ([7]; first compound 0.01581 µM): 0.787 | relative viability ([7]; first compound 0.05 µM): 0.82 | relative viability ([7]; first compound 0.1581 µM): 0.78 | relative viability ([7]; first compound 0.5 µM): 0.811 | relative viability ([8]; first compound 0.005 µM): 0.956 | relative viability ([8]; first compound 0.01581 µM): 0.928 | relative viability ([8]; first compound 0.05 µM): 0.938 | relative viability ([8]; first compound 0.1581 µM): 0.988 | relative viability ([8]; first compound 0.5 µM): 0.866 | relative viability ([9]; first compound 0.005 µM): 0.224 | relative viability ([9]; first compound 0.01581 µM): 0.302 | relative viability ([9]; first compound 0.1581 µM): 0.365 | relative viability ([9]; first compound 0.5 µM): 0.46 | relative viability ([10]; first compound 0.005 µM): 0.723 | relative viability ([10]; first compound 0.01581 µM): 0.737 | relative viability ([10]; first compound 0.05 µM): 0.77 | relative viability ([10]; first compound 0.1581 µM): 0.774 | relative viability ([10]; first compound 0.5 µM): 0.708 | relative viability ([11]; first compound 0.005 µM): 0.549 | relative viability ([11]; first compound 0.01581 µM): 0.537 | relative viability ([11]; first compound 0.05 µM): 0.555 | relative viability ([11]; first compound 0.5 µM): 0.482 | relative viability ([12]; first compound 0.005 µM): 0.899 | relative viability ([12]; first compound 0.01581 µM): 0.932 | relative viability ([12]; first compound 0.05 µM): 0.859 | relative viability ([12]; first compound 0.1581 µM): 0.947 | relative viability ([12]; first compound 0.5 µM): 0.824 | relative viability ([13]; first compound 0.005 µM): 0.963 | relative viability ([13]; first compound 0.01581 µM): 0.905 | relative viability ([13]; first compound 0.05 µM): 0.901 | relative viability ([13]; first compound 0.1581 µM): 1.21 | relative viability ([13]; first compound 0.5 µM): 0.853 | relative viability ([14]; first compound 0.005 µM): 1.03 | relative viability ([14]; first compound 0.01581 µM): 0.856 | relative viability ([14]; first compound 0.05 µM): 0.944 | relative viability ([14]; first compound 0.1581 µM): 0.833 | relative viability ([14]; first compound 0.5 µM): 0.826 | relative viability ([15]; first compound 0.005 µM): 0.699 | relative viability ([15]; first compound 0.01581 µM): 0.87 | relative viability ([15]; first compound 0.05 µM): 0.912 | relative viability ([15]; first compound 0.1581 µM): 0.802 | relative viability ([15]; first compound 0.5 µM): 0.814 | relative viability ([16]; first compound 0.005 µM): 0.797 | relative viability ([16]; first compound 0.01581 µM): 0.862 | relative viability ([16]; first compound 0.05 µM): 0.882 | relative viability ([16]; first compound 0.1581 µM): 0.917 | relative viability ([16]; first compound 0.5 µM): 0.668 | relative viability ([17]; first compound 0.005 µM): 1.11 | relative viability ([17]; first compound 0.01581 µM): 1.21 | relative viability ([17]; first compound 0.05 µM): 1.24 | relative viability ([17]; first compound 0.5 µM): 1.17 | relative viability ([18]; first compound 0.005 µM): 0.925 | relative viability ([18]; first compound 0.01581 µM): 1.1 | relative viability ([18]; first compound 0.05 µM): 1.13 | relative viability ([18]; first compound 0.1581 µM): 1.05 | relative viability ([18]; first compound 0.5 µM): 0.991 | relative viability ([19]; first compound 0.005 µM): 0.596 | relative viability ([19]; first compound 0.01581 µM): 0.906 | relative viability ([19]; first compound 0.05 µM): 0.891 | relative viability ([19]; first compound 0.1581 µM): 0.696 | relative viability ([19]; first compound 0.5 µM): 0.455 | relative viability ([20]; first compound 0.005 µM): 0.912 | relative viability ([20]; first compound 0.01581 µM): 0.997 | relative viability ([20]; first compound 0.05 µM): 0.991 | relative viability ([20]; first compound 0.1581 µM): 1.02 | relative viability ([20]; first compound 0.5 µM): 1.02 | relative viability ([21]; first compound 0.005 µM): 0.901 | relative viability ([21]; first compound 0.01581 µM): 0.765 | relative viability ([21]; first compound 0.05 µM): 0.78 | relative viability ([21]; first compound 0.1581 µM): 0.749 | relative viability ([21]; first compound 0.5 µM): 0.829
